Experimental data published in PMC11435093, “Synthesis and Evaluation of ^99mTc(CO)3 Complexes with Ciprofloxacin Dithiocarbamate for Infection Imaging” (Pharmaceutics, 2024).

Legend:
[1] = Lipophilicity: partition between n-octanol and PBS pH 7.4; format: physicochemical; details: n-octanol/PBS pH 7.4, M: 99mTc, three determinations
Description: The lipophilicity of HPLC purified technetium-99m complexes 1′–6′ was determined by measuring the partition coefficient (logD7.4) between n-octanol and phosphate-buffered saline (PBS, pH 7.4) based on established literature methods and is briefly described here. An aliquot of each technetium-99m complex was added to a mixture of equal volumes (2.0 mL each) of n-octanol and PBS (pH 7.4) in a 5 mL centrifuge tube. The mixture was vigorously vortexed for 2 min and then centrifuged at 5000 rpm for 5 min to ensure complete phase separation. After centrifugation, 0.1 mL aliquots from both the n-octanol and PBS phases were sampled and their radioactivity was measured using a gamma counter. The log P was calculated using the following equation: […]. The procedure was repeated three times for each complex to ensure reproducibility.

[2] = test system: Swiss Albino mice with induced infection (Staphylococcus aureus) and aseptic inflammation (turpentine); assay: Biodistribution in mice with induced infection and aseptic inflammation; format: in vivo; details: for Urine radioactivity: per sample
Description: The in vivo behavior of HPLC purified technetium-99m complexes 1′–6′ was evaluated through biodistribution studies in Swiss Albino mice (40 ± 5 g) with induced infection and aseptic inflammation. The experiment was conducted in accordance with the guidelines for the protection of animals used for scientific purposes. Mice were divided into groups and prepared for biodistribution studies by inducing infection and aseptic inflammation. Twenty-four hours prior to the injection of the technetium complexes, the left thigh muscle of each mouse was inoculated with 50 µL of a Staphylococcus aureus suspension (1 × 10^6 CFU/mL) to induce infection. Aseptic inflammation was induced in the right thigh muscle by injecting 50 µL of turpentine oil. The technetium-99m complexes were administered intravenously via the tail vein. Each mouse received an injection of 0.037 MBq of the respective technetium-99m complex. The biodistribution was studied at two different time points, 15 min and 120 min post-injection. At each time point, the mice were sacrificed under anesthesia. Blood samples were obtained by cardiac puncture. The organs of interest were collected after dissection, including the liver, heart, kidneys, stomach, intestines, spleen, muscle (normal, infected, and inflamed), lungs, pancreas, and urinary bladder. The organs were made free from adhering tissues and transferred into pre-weighed counting vials. The radioactivity of the collected samples was measured using a shielded well-type gamma counter. The results were expressed as a percentage of injected dose per gram of tissue (% ID/g). The radioactivity ratios in infected muscle to normal muscle and inflamed muscle to normal muscle were calculated to assess the specificity and selectivity of the technetium complexes for infection and inflammation.

Structure (SMILES)	LogD7.4 [1]	Aseptic Infl. (turpentine inflamed muscle) radioactivity ([2]; 15 min post i.v. injection) [%ID/g]	Blood radioactivity ([2]; 15 min post i.v. injection) [%ID/g]	Heart radioactivity ([2]; 15 min post i.v. injection) [%ID/g]	Infection (S. aureus infected muscle) radioactivity ([2]; 15 min post i.v. injection) [%ID/g]	Intestines radioactivity ([2]; 15 min post i.v. injection) [%ID/g]	Kidneys radioactivity ([2]; 15 min post i.v. injection) [%ID/g]	Liver radioactivity ([2]; 15 min post i.v. injection) [%ID/g]	Lungs radioactivity ([2]; 15 min post i.v. injection) [%ID/g]	Pancreas radioactivity ([2]; 15 min post i.v. injection) [%ID/g]	Spleen radioactivity ([2]; 15 min post i.v. injection) [%ID/g]	Stomach radioactivity ([2]; 15 min post i.v. injection) [%ID/g]	Urine radioactivity ([2]; 15 min post i.v. injection) [%ID]	Aseptic Infl. (turpentine inflamed muscle) radioactivity ([2]; 120 min post i.v. injection) [%ID/g]	Blood radioactivity ([2]; 120 min post i.v. injection) [%ID/g]	Heart radioactivity ([2]; 120 min post i.v. injection) [%ID/g]	Infection (S. aureus infected muscle) radioactivity ([2]; 120 min post i.v. injection) [%ID/g]	Intestines radioactivity ([2]; 120 min post i.v. injection) [%ID/g]	Kidneys radioactivity ([2]; 120 min post i.v. injection) [%ID/g]	Liver radioactivity ([2]; 120 min post i.v. injection) [%ID/g]	also measured
CP(c1ccccc1)c1ccccc1.O=C(O)c1cn(C2CC2)c2cc(N3CCN(C(=S)[S][99Tc])CC3)c(F)cc2c1=O.[C-]#[O+].[C-]#[O+].[C-]#[O+] [complex 4′, fac-[M(CO)3(Cip-DTC)(MePPh2)]]	1.8	0.77 ± 0.12	3.20 ± 0.47	4.36 ± 0.46	0.88 ± 0.15	1.27 ± 0.16	5.92 ± 0.60	42.11 ± 1.70	11.15 ± 0.19	1.38 ± 0.21	21.59 ± 0.98	1.11 ± 0.50	0.01 ± 0.00	1.88 ± 0.26	1.48 ± 0.11	8.85 ± 0.63	2.83 ± 0.30	7.97 ± 0.12	11.10 ± 0.70	31.09 ± 0.72	Muscle (normal) radioactivity ([2]; 15 min post i.v. injection): 0.56 ± 0.07 %ID/g; Lungs radioactivity ([2]; 120 min post i.v. injection): 9.41 ± 1.15 %ID/g; Pancreas radioactivity ([2]; 120 min post i.v. injection): 3.21 ± 0.28 %ID/g; Spleen radioactivity ([2]; 120 min post i.v. injection): 8.14 ± 0.93 %ID/g; Stomach radioactivity ([2]; 120 min post i.v. injection): 2.23 ± 0.37 %ID/g; Urine radioactivity ([2]; 120 min post i.v. injection): 0.04 ± 0.03 %ID
COc1ccc(P(c2ccc(OC)cc2)c2ccc(OC)cc2)cc1.O=C(O)c1cn(C2CC2)c2cc(N3CCN(C(=S)[S][99Tc])CC3)c(F)cc2c1=O.[C-]#[O+].[C-]#[O+].[C-]#[O+] [complex 3′, fac-[^99mTc(CO)3(Cip-DTC)(TMPP)]]	2.7	0.15 ± 0.07	2.54 ± 0.25	0.74 ± 0.32	0.27 ± 0.11	0.36 ± 0.25	1.40 ± 0.57	47.48 ± 1.30	9.58 ± 0.86	0.29 ± 0.13	33.88 ± 2.81	0.64 ± 0.61	0.00 ± 0.00	0.52 ± 0.23	6.71 ± 0.50	3.48 ± 0.23	1.14 ± 0.05	3.52 ± 0.19	5.65 ± 0.78	27.58 ± 0.66	Lungs radioactivity ([2]; 120 min post i.v. injection): 8.67 ± 0.72 %ID/g; Muscle (normal) radioactivity ([2]; 120 min post i.v. injection): 0.34 ± 0.02 %ID/g; Pancreas radioactivity ([2]; 120 min post i.v. injection): 0.93 ± 0.20 %ID/g; Spleen radioactivity ([2]; 120 min post i.v. injection): 23.10 ± 1.74 %ID/g; Stomach radioactivity ([2]; 120 min post i.v. injection): 1.21 ± 0.32 %ID/g; aseptic inflammation/normal muscle ratio ([2]; 120 min post i.v. injection): 1.51; infected/normal muscle ratio ([2]; 120 min post i.v. injection): 3.32; Urine radioactivity ([2]; 120 min post i.v. injection): 0.01 ± 0.02 %ID; blood clearance / blood radioactivity course ([2]; within 120 min): increasing
